The text below walks through data of ChEMBL document CHEMBL1147567, “Neuroprotective effects of flavones on hydrogen peroxide-induced apoptosis in SH-SY5Y neuroblostoma cells” (Bioorg Med Chem Lett, 2004).

SMILES strings stand for the structures.

Test [1] relates to SH-SY5Y. Description: Percent increase against SH-SY5Y human neuroblastoma cell viability induced by hydrogen peroxide at 50 uM concentration. The class given is functional.
Test [2] concerns SH-SY5Y. Description: Percent increase against SH-SY5Y human neuroblastoma cell viability induced by hydrogen peroxide at 2 uM concentration. The class given is functional.
The test system of test [3] is SH-SY5Y. In words: Percent increase against SH-SY5Y human neuroblastoma cell viability induced by hydrogen peroxide at 10 uM concentration. The class given is functional.
A short description of test [4]: Free radical scavenging activity of DPPH was determined.

In general, IC50 refers to the concentration needed to halve the response being measured. Low readings indicate higher potency, high ones lower potency.

In the case of `O=c1cc(-c2ccc(O)c(O)c2)oc2cc(O)cc(O)c12` [LUTEOLIN], the figures for the Increase in the test with SH-SY5Y [1], in the test with SH-SY5Y [2] and with SH-SY5Y [3] were 77.5%, 76.4% and 84%, respectively. Further, the midpoint of inhibition in test [4], the IC50, lay at 10.4 µM.

`O=C1O[C@H]([C@@H](O)CO)C(O)=C1O` [ASCORBIC ACID] registered an IC50 in test [4] of 26.5 µM.

For the compound `O=c1cc(-c2ccccc2)oc2cc(O)cc(O)c12` [CHRYSIN], the IC50 in test [4] was above 100 µM.

Take `O=c1cc(-c2ccc(O)cc2)oc2cc(O)cc(O)c12` [APIGENIN]: the Increase in the test on SH-SY5Y [1] turned out to be 63.7%; with SH-SY5Y [2] it was 24.6%; with SH-SY5Y [3] it was 52.4%. In addition, the IC50 in test [4] is above 100 µM.

As to `COc1c(O)cc(O)c2c(=O)cc(-c3ccccc3)oc12` [WOGONIN], the IC50 in test [4] was above 100 µM.
